{"source": "patent US11958832B1", "about": "“2-alkoxy[4,3:6,3-terpyridine]-3-carbonitriles as antimicrobial compounds” (KING FAISAL UNIVERSITY, priority 2023, dated 2024)", "format_in_all_cases": "cell-based", "key": {"Aspergillus flavus": {"tested_on": "Aspergillus flavus", "test": "Agar plate disc-diffusion, antifungal inhibition zone", "conditions": "Sabouraud's dextrose agar, 37° C., 72 hours, DMSO zone subtracted; for inhibition zone, Aspergillus flavus, A: A = concentration of comp. = 10,000 μL; for inhibition zone, Aspergillus flavus, B: B = concentration of comp. = 30,000 μL; for inhibition zone, Aspergillus flavus, C: C = concentration of comp. = 50,000 μL", "experimental": "(§1) The agar plate disc-diffusion method was applied. Sterilized filter papers (6 mm in diameter) were wetted with 10 μL of a solution of compounds 2-ethoxy[4,3:6,3-terpyridine]-3-carbonitrile 4 and/or 2-methoxy[4,3:6,3-terpyridine]-3-carbonitrile 5 to be tested, […], and the discs were allowed to air dry. The discs were then placed onto the surface of agar plates (nutrient agar for bacteria and Sabouraud's dextrose agar for fungi) seeded with the test organism. Each plate contained 15 mL of the agar medium, previously seeded with 0.2 mL of the broth culture of each organism pregrown for 18 h. The plates were incubated at 37° C. for 48 hours, and 72 hours for fungi. The inhibition zones were measured in mm. Discs impregnated with DMSO were used as a control, and its inhibition zone was subtracted from the tested compound actual inhibition zone."}, "[1]": {"tested_on": "Chrysosporium keratinophilum", "test": "Agar plate disc-diffusion, antifungal inhibition zone", "conditions": "Sabouraud's dextrose agar, 37° C., 72 hours, DMSO zone subtracted; for inhibition zone, Chrysosporium keratinophilum, A: A = concentration of comp. = 10,000 μL; for inhibition zone, Chrysosporium keratinophilum, B: B = concentration of comp. = 30,000 μL; for inhibition zone, Chrysosporium keratinophilum, C: C = concentration of comp. = 50,000 μL", "experimental": "as §1"}, "Staphylococcus aureus": {"tested_on": "Staphylococcus aureus", "test": "Agar plate disc-diffusion, antibacterial inhibition zone", "conditions": "nutrient agar, 37° C., 48 hours, DMSO zone subtracted; for inhibition zone, Staphylococcus aureus, A: A = concentration of comp. = 10,000 μL; for inhibition zone, Staphylococcus aureus, B: B = concentration of comp. = 30,000 μL; for inhibition zone, Staphylococcus aureus, C: C = concentration of comp. = 50,000 μL", "experimental": "The agar plate disc-diffusion method was applied. […] The discs were then placed onto the surface of agar plates (nutrient agar for bacteria and Sabouraud's dextrose agar for fungi) seeded with the test organism. Each plate contained 15 mL of the agar medium, previously seeded with 0.2 mL of the broth culture of each organism pregrown for 18 h. The plates were incubated at 37° C. for 48 hours, and 72 hours for fungi. The inhibition zones were measured in mm. Discs impregnated with DMSO were used as a control, and its inhibition zone was subtracted from the tested compound actual inhibition zone."}, "Bacillus cereus": {"tested_on": "Bacillus cereus", "test": "Agar plate disc-diffusion, antibacterial inhibition zone", "conditions": "nutrient agar, 37° C., 48 hours, DMSO zone subtracted; for inhibition zone, Bacillus Cereus, A: A = concentration of comp. = 10,000 μL; for inhibition zone, Bacillus Cereus, B: B = concentration of comp. = 30,000 μL; for inhibition zone, Bacillus Cereus, C: C = concentration of comp. = 50,000 μL", "experimental": "as §1"}, "Pseudomonas aeruginosa": {"tested_on": "Pseudomonas aeruginosa", "test": "Agar plate disc-diffusion, antibacterial inhibition zone", "conditions": "nutrient agar, 37° C., 48 hours, DMSO zone subtracted; for inhibition zone, Pseudomonas aeruginosa, A: A = concentration of comp. = 10,000 μL; for inhibition zone, Pseudomonas aeruginosa, B: B = concentration of comp. = 30,000 μL; for inhibition zone, Pseudomonas aeruginosa, C: C = concentration of comp. = 50,000 μL", "experimental": "as §1"}, "Escherichia coli": {"tested_on": "Escherichia coli", "test": "Agar plate disc-diffusion, antibacterial inhibition zone", "conditions": "nutrient agar, 37° C., 48 hours, DMSO zone subtracted; for inhibition zone, Escherichia coli, A: A = concentration of comp. = 10,000 μL; for inhibition zone, Escherichia coli, B: B = concentration of comp. = 30,000 μL; for inhibition zone, Escherichia coli, C: C = concentration of comp. = 50,000 μL", "experimental": "as §1"}}, "data": [{"compound": "COc1nc(-c2cccnc2)cc(-c2cccnc2)c1C#N", "note": "[Compound 5, 2-methoxy[4,3:6,3-terpyridine]-3-carbonitrile]", "values": [{"measurement": "inhibition zone, Aspergillus flavus, A", "setting": "Aspergillus flavus", "result": 25, "unit": "mm"}, {"measurement": "inhibition zone, Aspergillus flavus, B", "setting": "Aspergillus flavus", "result": 27, "unit": "mm"}, {"measurement": "inhibition zone, Aspergillus flavus, C", "setting": "Aspergillus flavus", "result": 38, "unit": "mm"}, {"measurement": "inhibition zone, Chrysosporium keratinophilum, A", "setting": "[1]", "result": 27, "unit": "mm"}, {"measurement": "inhibition zone, Chrysosporium keratinophilum, B", "setting": "[1]", "result": 29, "unit": "mm"}, {"measurement": "inhibition zone, Chrysosporium keratinophilum, C", "setting": "[1]", "result": 48, "unit": "mm"}, {"measurement": "inhibition zone, Staphylococcus aureus, A", "setting": "Staphylococcus aureus", "result": 19, "unit": "mm"}, {"measurement": "inhibition zone, Staphylococcus aureus, B", "setting": "Staphylococcus aureus", "result": 28, "unit": "mm"}, {"measurement": "inhibition zone, Staphylococcus aureus, C", "setting": "Staphylococcus aureus", "result": 34, "unit": "mm"}, {"measurement": "inhibition zone, Bacillus Cereus, A", "setting": "Bacillus cereus", "result": 26, "unit": "mm"}, {"measurement": "inhibition zone, Bacillus Cereus, B", "setting": "Bacillus cereus", "result": 28, "unit": "mm"}, {"measurement": "inhibition zone, Bacillus Cereus, C", "setting": "Bacillus cereus", "result": 38, "unit": "mm"}, {"measurement": "inhibition zone, Pseudomonas aeruginosa, A", "setting": "Pseudomonas aeruginosa", "result": 24, "unit": "mm"}, {"measurement": "inhibition zone, Pseudomonas aeruginosa, B", "setting": "Pseudomonas aeruginosa", "result": 32, "unit": "mm"}, {"measurement": "inhibition zone, Pseudomonas aeruginosa, C", "setting": "Pseudomonas aeruginosa", "result": 38, "unit": "mm"}, {"measurement": "inhibition zone, Escherichia coli, A", "setting": "Escherichia coli", "result": 28, "unit": "mm"}, {"measurement": "inhibition zone, Escherichia coli, B", "setting": "Escherichia coli", "result": 38, "unit": "mm"}, {"measurement": "inhibition zone, Escherichia coli, C", "setting": "Escherichia coli", "result": 50, "unit": "mm"}]}, {"compound": "CCOc1nc(-c2cccnc2)cc(-c2cccnc2)c1C#N", "note": "[Compound 4, 2-ethoxy[4,3:6,3-terpyridine]-3-carbonitrile]", "values": [{"measurement": "inhibition zone, Aspergillus flavus, A", "setting": "Aspergillus flavus", "result": 21, "unit": "mm"}, {"measurement": "inhibition zone, Aspergillus flavus, B", "setting": "Aspergillus flavus", "result": 25, "unit": "mm"}, {"measurement": "inhibition zone, Aspergillus flavus, C", "setting": "Aspergillus flavus", "result": 35, "unit": "mm"}, {"measurement": "inhibition zone, Chrysosporium keratinophilum, A", "setting": "[1]", "result": 24, "unit": "mm"}, {"measurement": "inhibition zone, Chrysosporium keratinophilum, B", "setting": "[1]", "result": 27, "unit": "mm"}, {"measurement": "inhibition zone, Chrysosporium keratinophilum, C", "setting": "[1]", "result": 40, "unit": "mm"}, {"measurement": "inhibition zone, Staphylococcus aureus, A", "setting": "Staphylococcus aureus", "result": 18, "unit": "mm"}, {"measurement": "inhibition zone, Staphylococcus aureus, B", "setting": "Staphylococcus aureus", "result": 22, "unit": "mm"}, {"measurement": "inhibition zone, Staphylococcus aureus, C", "setting": "Staphylococcus aureus", "result": 34, "unit": "mm"}, {"measurement": "inhibition zone, Bacillus Cereus, A", "setting": "Bacillus cereus", "result": 24, "unit": "mm"}, {"measurement": "inhibition zone, Bacillus Cereus, B", "setting": "Bacillus cereus", "result": 27, "unit": "mm"}, {"measurement": "inhibition zone, Bacillus Cereus, C", "setting": "Bacillus cereus", "result": 35, "unit": "mm"}, {"measurement": "inhibition zone, Pseudomonas aeruginosa, A", "setting": "Pseudomonas aeruginosa", "result": 24, "unit": "mm"}, {"measurement": "inhibition zone, Pseudomonas aeruginosa, B", "setting": "Pseudomonas aeruginosa", "result": 29, "unit": "mm"}, {"measurement": "inhibition zone, Pseudomonas aeruginosa, C", "setting": "Pseudomonas aeruginosa", "result": 39, "unit": "mm"}, {"measurement": "inhibition zone, Escherichia coli, A", "setting": "Escherichia coli", "result": 27, "unit": "mm"}, {"measurement": "inhibition zone, Escherichia coli, B", "setting": "Escherichia coli", "result": 37, "unit": "mm"}, {"measurement": "inhibition zone, Escherichia coli, C", "setting": "Escherichia coli", "result": 48, "unit": "mm"}]}]}
